According to article PMC6430500, “3-Fluoro-4-hydroxyprolines: Synthesis, Conformational Analysis, and Stereoselective Recognition by the VHL E3 Ubiquitin Ligase for Targeted Protein Degradation” (Journal of the American Chemical Society, 2018):

Tests used:
VBC and Brd2BD1 = biological target: T1, VBC and Brd2BD1 (Homo sapiens, UniProt P25440+P40337); experiment: ITC ternary complex formation, VBC titrated into PROTAC:Brd2BD1; format: binding; conditions: for α (cooperativity): Kd binary,VBC/Kd ternary; for α (cooperativity) / ΔΔG: Brd2BD1; for Kd / ΔG / ΔH / –TΔS: PROTAC:Brd2BD1 in cell, VBC in syringe; for ΔΔG: ternary vs binary
T1 construct: VHL (54–213), ElonginC (17–112) and; Brd2BD1 (71–194),; His6 (N, cleaved yes); made in house; host or cells: E. coli BL21(DE3)
Description: structure (C2 R, C3 S, C4 R) assumed on the basis of unchanging stereogenic centres in the synthesis.
Final R(F) = 0.033, wR(F 2) = 0.085 for 275 parameters and 3901 reflections with I > 2σ(I) (corresponding R-values based on all 4067 reflections = 0.035 and 0.086, respectively), CCDC […]
Protein expression and purification.
Wild-type versions of human proteins VHL (UniProt accession number: P40337), ElonginC […]
expression. For expression of VBC, N-terminally His6-tagged VHL (54–213), ElonginC (17–112) and ElonginB (1–104) were co- expressed in Escherichia coli BL21(DE3) at 24 °C for 16 h using 0.3 mM isopropyl β-D -1-thiogalactopyranoside (IPTG). E. coli cells were lysed using a pressure cell homogenizer (Stansted Fluid Power) and lysate clarified by centrifugation. His6-tagged VCB was purified on a HisTrap FF affinity column (GE Healthcare) by elution with an imidazole gradient. The His6tag was removed using TEV protease and the untagged complex dialyzed into low -concentration imidazole buffer. VCB was then flowed through the HisTrap FF column a second time, allowing impurities to bind, as the complex eluted without binding. VCB was then additionally purified by anion exchange and size-exclusion chromatography using ResourceQ and Superdex-75 columns (GE Healthcare), respectively. The final purified complex was stored in 20 mM Bis–Tris, pH 7, 150 mM sodium chloride and 1 mM dithiothreitol (DTT). Brd2BD1 (71–194), and Brd4BD2 (333–460) were expressed with an N-terminal His6 tag in E. coli BL21(DE3) at 18 °C for 20 h using 0.2 mM IPTG.
His6-tagged BDs were purified on nickel Sepharose 6 fast flow beads (GE Healthcare) by elution with increasing concentrations of imidazole. For crystallography the His6-tagged BD was cleaved with TEV protease and dialyzed into low-concentration imidazole buffer. The BD was then flowed over the nickel beads a second time to remove impurities and protease. BDs were then additionally purified by size-exclusion chromatography using a Superdex-75 column. The BDs were purified by size-exclusion chromatography using a Superdex-75 column. The final purified proteins were stored in 20 mM 4-(2-hydroxyethyl)-1-piperazineethanesulfonic acid (HEPES), pH 7.5, 150 mM sodium chloride and 1 mM DTT. All chromatography purification steps were performed using Äkta FPLC purification systems (GE Healthcare) or glass econo-columns (Bio-Rad) at room temperature.
Isothermal titration calorimetry (ITC) of peptides and ligands
Titrations were performed on an ITC200 micro-calorimeter (GE Healthcare). The peptides were dissolved in buffer (20 mM Bis–Tris propane, 100 mM NaCl, 1 mM tris(2-carboxyethyl)phosphine […]
(TCEP), pH 7.4) at 100 µM. The compounds were titrated against 10 µM VBC complex, equilibrated in the same buffer. The titrations consisted of 20 injections of 2 µL of peptide solution at a rate of 0.5 µL/s at 120 s time intervals. An initial injection of ligand (0.4 µL) was made and discarded during data analysis. All experiments were performed at 25°C while stirring at 650 rpm.
Ligands 14a- b were diluted from DMSO stock solution to 300 µM in buffer (20 mM Bis-Tris propane, 150 mM NaCl, 1 mM TCEP, pH 7.4). The compounds were titrated against 30 µM VBC complex, equilibrated in the same buffer. The final concentration of DMSO in each experiment was […]
The data were fitted to a single-binding-site model using the MicroCal PEAQ-ITC analysis software provided by the manufacturer to obtain the stoichiometry n, the dissociation constant K d, and the enthalpy of binding ΔH . The reported values are the mean ± s.e.m. from independent measurements.
Isothermal titration calorimetry (ITC)of PROTACs
The titrations were all performed as reverse mode (protein in syringe, ligand in cell) and consisted of 19 injections of 2 µl protein solution (20 mM Bis–Tris propane, 100 mM NaCl, 1 mM tris(2-carboxyethyl)phosphine (TCEP), pH 7.4) at a rate of 0.5 µl/s at 120 s time intervals. An initial injection (0.4 µl) was made and discarded during data analysis. […]

Brd2 = biological target: T2, Brd2 (Homo sapiens, UniProt P25440); experiment: BET protein degradation in HeLa cells, Western blot; format: cell-based; conditions: 24 h
T2 construct: endogenous in cells; host or cells: HeLa
Description: (§1) HeLa and A549 cells were kept in DMEM (Gibco) supplemented with 10%(v/v) FBS (Gibco), 2 mM L-glutamine (Gibco), penicillin (100 units /mL) and streptomycin (100 µ g/mL) (Gibco). MV4;11 cells were kept in RPMI 1640 supplemented with 10%(v/v) FBS (Gibco), 2 mM L-glutamine (Gibco), penicillin (100 units /mL) and streptomycin (100 µg/mL) (Gibco). Cells were kept at 37 °C, 5% CO2.
(§2) Testing compounds in cells
(§3) HeLa cells (3 x 105) were seeded onto each well on a six-well plate 24 h before treatment with test compounds. To treat the cells with the test compounds, medium was replaced with fresh medium containing specified concentration of test compounds for specified time. At the end of treatment, cells were washed with PBS and then were lysed by applying RIPA buffer (Sigma, R0278) supplemented with Protease inhibitor (Roche, # 04693159001) and Benzonase (Sigma, E1014). Lysate was clarified by centrifugation (20,000 x g, 10 min, 4 °C). Supernatant was collected and protein concentration of was determined by BCA assay. The rest of the clarified lysate was kept at -80° C before further […]
(§4) Protein on gel was transferred to nitrocellulose membrane using Bio-Rad Transblot system according to manufacturer guidelines. Blots were probed with anti- Brd4 (AbCam, ab128874), anti-Brd3 (AbCam, ab50818), anti- Brd2 (AbCam, ab139690) and anti-β-actin (Cell Signaling, no. 4970) antibodies. Blots were developed with secondary anti-mouse IgG (Licor, 926-32210) or anti-rabbit IgG (Licor, 926- 32213) antibodies from Licor and bands visualized using Bio-Rad ChemiDoc MP […]
(§5) Western Blot Quantification#
(§6) Image processing and band intensity quantification were performed using Bio-Rad Image Lab software version 6.0.0. Reported band intensities are normalized to loading control, i.e., β-actin or tubulin for total lysates.

Brd3 = biological target: T3, Brd3 (Homo sapiens, UniProt Q15059); experiment: as above; format: cell-based; conditions: 24 h
T3 construct: endogenous in cells; host or cells: HeLa
Description: as §1, §2, §3, §4, §5, §6

T1 sequence (P40337 54-213): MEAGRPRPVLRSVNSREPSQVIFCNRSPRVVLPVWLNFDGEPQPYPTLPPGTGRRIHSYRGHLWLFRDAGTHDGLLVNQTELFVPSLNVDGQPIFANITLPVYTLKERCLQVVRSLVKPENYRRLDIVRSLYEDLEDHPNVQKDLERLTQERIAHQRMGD
T1 sequence (Q15369 17-112 partner limits assumed): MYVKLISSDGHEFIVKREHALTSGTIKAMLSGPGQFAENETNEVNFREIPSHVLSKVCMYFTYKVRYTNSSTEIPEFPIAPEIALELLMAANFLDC
T1 sequence (Q15370 1-104 partner limits assumed): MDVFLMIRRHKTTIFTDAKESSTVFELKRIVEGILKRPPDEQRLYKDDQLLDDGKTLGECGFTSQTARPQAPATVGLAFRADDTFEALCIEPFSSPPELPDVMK
T1 sequence (P25440 71-194): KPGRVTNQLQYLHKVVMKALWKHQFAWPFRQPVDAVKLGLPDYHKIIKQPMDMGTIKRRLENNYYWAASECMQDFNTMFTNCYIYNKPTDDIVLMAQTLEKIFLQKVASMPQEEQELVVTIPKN
T3 sequence (Q15059 whole entry): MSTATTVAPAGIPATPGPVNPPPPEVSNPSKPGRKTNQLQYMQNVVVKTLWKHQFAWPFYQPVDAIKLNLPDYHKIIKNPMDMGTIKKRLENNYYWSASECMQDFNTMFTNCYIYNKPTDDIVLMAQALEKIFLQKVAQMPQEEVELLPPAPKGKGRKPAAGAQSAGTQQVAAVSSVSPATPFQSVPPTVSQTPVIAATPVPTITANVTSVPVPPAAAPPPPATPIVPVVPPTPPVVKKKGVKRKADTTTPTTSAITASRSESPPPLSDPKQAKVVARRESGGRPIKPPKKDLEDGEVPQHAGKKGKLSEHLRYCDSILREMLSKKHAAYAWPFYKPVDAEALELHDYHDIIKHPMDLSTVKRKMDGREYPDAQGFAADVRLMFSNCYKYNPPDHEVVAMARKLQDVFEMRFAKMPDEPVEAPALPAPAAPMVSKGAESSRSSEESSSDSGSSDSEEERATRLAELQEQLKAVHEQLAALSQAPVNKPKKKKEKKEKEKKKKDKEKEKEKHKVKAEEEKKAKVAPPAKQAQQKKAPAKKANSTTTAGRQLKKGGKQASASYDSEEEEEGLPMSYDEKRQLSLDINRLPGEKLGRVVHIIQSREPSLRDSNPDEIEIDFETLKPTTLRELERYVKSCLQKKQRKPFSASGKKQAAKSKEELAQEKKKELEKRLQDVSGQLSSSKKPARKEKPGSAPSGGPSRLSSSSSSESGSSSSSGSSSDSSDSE
T2 sequence (P25440 whole entry): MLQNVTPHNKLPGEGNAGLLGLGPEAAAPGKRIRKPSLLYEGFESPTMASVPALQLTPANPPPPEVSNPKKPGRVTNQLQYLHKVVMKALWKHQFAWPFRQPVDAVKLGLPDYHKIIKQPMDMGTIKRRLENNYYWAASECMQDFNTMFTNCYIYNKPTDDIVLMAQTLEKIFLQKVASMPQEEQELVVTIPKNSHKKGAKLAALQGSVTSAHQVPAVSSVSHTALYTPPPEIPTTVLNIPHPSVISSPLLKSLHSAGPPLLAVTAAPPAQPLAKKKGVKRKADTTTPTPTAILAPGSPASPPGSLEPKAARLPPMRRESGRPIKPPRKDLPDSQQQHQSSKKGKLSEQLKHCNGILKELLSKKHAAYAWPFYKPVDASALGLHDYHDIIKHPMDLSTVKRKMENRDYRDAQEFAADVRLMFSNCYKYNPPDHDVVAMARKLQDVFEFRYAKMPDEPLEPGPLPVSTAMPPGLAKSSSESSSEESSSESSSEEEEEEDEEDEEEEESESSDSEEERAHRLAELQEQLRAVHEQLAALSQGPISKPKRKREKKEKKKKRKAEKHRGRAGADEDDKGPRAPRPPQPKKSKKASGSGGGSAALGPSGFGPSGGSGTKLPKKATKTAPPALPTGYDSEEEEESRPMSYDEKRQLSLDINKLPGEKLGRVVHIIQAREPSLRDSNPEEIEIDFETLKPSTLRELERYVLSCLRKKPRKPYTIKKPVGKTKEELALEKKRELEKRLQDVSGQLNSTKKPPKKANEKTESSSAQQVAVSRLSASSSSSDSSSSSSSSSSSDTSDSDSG

SMILES: Cc1ncsc1-c1ccc(CNC(=O)[C@@H]2[C@@H](F)[C@@H](O)CN2C(=O)[C@@H](NC(=O)COCCOCCOCCNC(=O)C[C@@H]2N=C(c3ccc(Cl)cc3)c3c(sc(C)c3C)-n3c(C)nnc32)C(C)(C)C)cc1 [15a]
- α (cooperativity) (VBC and Brd2BD1): 3.9
- Kd (VBC and Brd2BD1): 64 ± 3 nM
- ΔG (VBC and Brd2BD1): -9.85 ± 0.05 kcal/mol
- ΔH (VBC and Brd2BD1): -9.17 kcal/mol
- –TΔS (VBC and Brd2BD1): -0.6 ± 0.6 kcal/mol
- ΔΔG (VBC and Brd2BD1): -0.85 kcal/mol
- DC50 (Brd2): ~10 nM
- DC50 (Brd3): ~10 nM

SMILES: Cc1ncsc1-c1ccc(CNC(=O)[C@@H]2[C@H](F)[C@@H](O)CN2C(=O)[C@@H](NC(=O)COCCOCCOCCNC(=O)C[C@@H]2N=C(c3ccc(Cl)cc3)c3c(sc(C)c3C)-n3c(C)nnc32)C(C)(C)C)cc1 [15b]
- α (cooperativity) (VBC and Brd2BD1): 1.2
- Kd (VBC and Brd2BD1): 500 ± 96 nM
- ΔG (VBC and Brd2BD1): -8.6 ± 0.1 kcal/mol
- ΔH (VBC and Brd2BD1): -5.1 ± 0.2 kcal/mol
- –TΔS (VBC and Brd2BD1): -3.6 ± 0.3 kcal/mol
- ΔΔG (VBC and Brd2BD1): -0.1 ± 0.1 kcal/mol
- DC50 (Brd2): ~3000 nM
- DC50 (Brd3): ~3000 nM
